In ChEMBL document CHEMBL1201862, “PubChem BioAssay data set” (2004):
The source made the active and inactive calls.

Tests used:
[1] = target: NACHT, LRR and PYD domains-containing protein 3 (Homo sapiens, UniProt Q96P20); experiment: NALP3 inhibitors in yeast, dose response, luminescent (AID 488799); assay type: functional
[2] = target: DNA (cytosine-5)-methyltransferase 1 (Homo sapiens, UniProt P26358); experiment: inhibition of DNA methylation by DNMT1 – biochemical, fluorescent molecular beacon, confirmation (AID 602386); assay type: functional
Cytochrome P450 2C19 = Cytochrome P450 2C19 (Homo sapiens, UniProt P33261); experiment: Cytochrome panel assay with activity outcomes. Panel member name: p450-cyp2c19 Compounds with AC50 equal or less than 10 uM are considered active; assay type: functional; details: read-out: AC50
Cytochrome P450 2C9 = Cytochrome P450 2C9 (Homo sapiens, UniProt P11712)
HeLa = experiment: viability loss in HeLa cells – cell-based, 24 h, cherry-picked samples, cytotoxicity control, dose response (AID 504726); assay type: functional; details: Homo sapiens;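 further: potency for cytotoxicity as loss of luminescence signal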
[3] = viability loss in THP-1 monocytes – THP-1 cells, cytotoxicity control for Vif-APOBEC3G degradation inhibitor project, dose response (AID 1117359); assay type: functional; details: THP-1
[4] = target: Dual specificity protein phosphatase 3 (Homo sapiens, UniProt P51452); experiment: inhibition constants for human DUSP3 – biochemical, colorimetric, SAR follow-up (AID 2004)
[5] = target: Signal transducer and activator of transcription 3 (Homo sapiens, UniProt P40763); experiment: STAT3 activation with BCL3 mRNA and toxicity – cell-based, […], BCL3 qPCR, cytotoxicity, late-stage follow-up, panel member STAT3 Activation (AID 2049)
Wee1-like protein kinase = Wee1-like protein kinase (Homo sapiens, UniProt P30291); experiment: HeLa cell cycle G2/M accumulation – FACS, mechanism study for Wee1 degradation inhibitor project, late-stage follow-up, panel member Wee1 Degradation (AID 2088)
[6] = target: G2/mitotic-specific cyclin-B1 (Homo sapiens, UniProt P14635); experiment: HeLa cell cycle G2/M accumulation – FACS, mechanism study for Wee1 degradation inhibitor project, late-stage follow-up, panel member Cyclin B Degradation (AID 2088)
[7] = target: Cyclin-dependent kinase 5/CDK5 activator 1 (Homo sapiens, UniProt Q00535); experiment: blockade of human CDK5 activity – biochemical, cherry-picked samples, set 2, dose response (AID 504545)
[8] = Luminescence Cell-Based Dose Retest to Confirm Inhibitors of Cancer Stem Cells. [Related pubchem assays (depositor defined):AID2717, AID2721]; assay type: functional; details: Homo sapiens
[9] = target: T1, Ubiquitin-conjugating enzyme E2 N (Homo sapiens, UniProt P61088); assay type: functional;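 further: Dose-response confirmation in a TR-FRET assay detecting UBC13-driven polyubiquitin chain formation, inhibition measured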
T1 sequence (P61088 whole entry): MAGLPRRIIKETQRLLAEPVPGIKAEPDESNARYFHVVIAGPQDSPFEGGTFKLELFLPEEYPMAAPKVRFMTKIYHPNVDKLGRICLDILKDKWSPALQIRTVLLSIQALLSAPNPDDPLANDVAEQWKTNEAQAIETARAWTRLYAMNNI

[10] = target: Metabotropic glutamate receptor 4 (Homo sapiens, UniProt Q14833); experiment: Modulation of the Metabotropic Glutamate Receptor mGluR4: Potency at human mGluR4. Modulation of intracellular Ca2+ using Fluo-4, AM, in CHO expressing recombinant receptor [Related pubchem assays (depositor defined):AID2437, AID2807]; assay type: functional, cell-based

Sequence of Cytochrome P450 2C19 (P33261 whole entry): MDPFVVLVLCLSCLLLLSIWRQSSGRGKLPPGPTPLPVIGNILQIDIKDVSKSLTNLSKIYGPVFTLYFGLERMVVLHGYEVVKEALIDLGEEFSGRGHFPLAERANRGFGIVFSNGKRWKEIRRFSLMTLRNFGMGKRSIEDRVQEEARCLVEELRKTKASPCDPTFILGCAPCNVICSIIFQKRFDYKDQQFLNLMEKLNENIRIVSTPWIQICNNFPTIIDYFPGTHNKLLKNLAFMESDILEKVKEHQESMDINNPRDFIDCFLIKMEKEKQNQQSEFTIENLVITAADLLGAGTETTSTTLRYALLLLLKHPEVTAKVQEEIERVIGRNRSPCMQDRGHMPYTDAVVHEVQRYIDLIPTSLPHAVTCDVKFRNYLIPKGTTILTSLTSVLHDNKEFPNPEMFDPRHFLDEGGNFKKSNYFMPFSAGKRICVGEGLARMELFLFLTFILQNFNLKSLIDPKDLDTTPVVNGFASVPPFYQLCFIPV
Sequence of G2/mitotic-specific cyclin-B1 (P14635 whole entry): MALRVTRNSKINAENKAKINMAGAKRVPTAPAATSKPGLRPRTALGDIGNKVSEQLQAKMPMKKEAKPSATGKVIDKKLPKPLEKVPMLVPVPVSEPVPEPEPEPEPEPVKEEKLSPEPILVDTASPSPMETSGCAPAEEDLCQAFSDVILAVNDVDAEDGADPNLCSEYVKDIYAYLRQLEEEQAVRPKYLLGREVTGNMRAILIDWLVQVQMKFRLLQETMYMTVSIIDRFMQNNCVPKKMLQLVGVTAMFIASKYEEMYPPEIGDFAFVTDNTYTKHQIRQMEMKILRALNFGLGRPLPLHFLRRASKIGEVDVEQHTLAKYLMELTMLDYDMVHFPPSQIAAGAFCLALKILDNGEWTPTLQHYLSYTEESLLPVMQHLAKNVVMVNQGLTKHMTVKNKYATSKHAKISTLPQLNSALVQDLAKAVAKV
Sequence of Signal transducer and activator of transcription 3 (P40763 whole entry): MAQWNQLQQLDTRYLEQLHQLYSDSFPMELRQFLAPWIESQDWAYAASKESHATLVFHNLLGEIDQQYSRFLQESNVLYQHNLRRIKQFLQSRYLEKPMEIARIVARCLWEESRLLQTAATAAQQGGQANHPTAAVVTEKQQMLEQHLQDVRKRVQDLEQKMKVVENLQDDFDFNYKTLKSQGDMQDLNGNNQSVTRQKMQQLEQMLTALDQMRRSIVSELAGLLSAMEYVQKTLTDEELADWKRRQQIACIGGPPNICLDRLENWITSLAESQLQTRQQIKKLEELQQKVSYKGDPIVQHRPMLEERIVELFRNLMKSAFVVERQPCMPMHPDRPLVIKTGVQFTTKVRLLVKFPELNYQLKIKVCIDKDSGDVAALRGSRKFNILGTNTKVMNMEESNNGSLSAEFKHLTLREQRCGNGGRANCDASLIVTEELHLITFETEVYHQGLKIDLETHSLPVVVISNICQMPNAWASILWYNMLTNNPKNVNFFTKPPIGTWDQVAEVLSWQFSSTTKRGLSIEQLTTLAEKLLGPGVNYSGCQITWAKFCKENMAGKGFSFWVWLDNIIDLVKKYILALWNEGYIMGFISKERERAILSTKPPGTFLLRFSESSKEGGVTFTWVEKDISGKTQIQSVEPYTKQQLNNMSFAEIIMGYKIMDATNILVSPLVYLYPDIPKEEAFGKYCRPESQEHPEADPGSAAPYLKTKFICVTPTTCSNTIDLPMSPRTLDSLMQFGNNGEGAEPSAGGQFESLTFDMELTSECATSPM
Sequence of NACHT, LRR and PYD domains-containing protein 3 (Q96P20 whole entry, the tested form may be a part): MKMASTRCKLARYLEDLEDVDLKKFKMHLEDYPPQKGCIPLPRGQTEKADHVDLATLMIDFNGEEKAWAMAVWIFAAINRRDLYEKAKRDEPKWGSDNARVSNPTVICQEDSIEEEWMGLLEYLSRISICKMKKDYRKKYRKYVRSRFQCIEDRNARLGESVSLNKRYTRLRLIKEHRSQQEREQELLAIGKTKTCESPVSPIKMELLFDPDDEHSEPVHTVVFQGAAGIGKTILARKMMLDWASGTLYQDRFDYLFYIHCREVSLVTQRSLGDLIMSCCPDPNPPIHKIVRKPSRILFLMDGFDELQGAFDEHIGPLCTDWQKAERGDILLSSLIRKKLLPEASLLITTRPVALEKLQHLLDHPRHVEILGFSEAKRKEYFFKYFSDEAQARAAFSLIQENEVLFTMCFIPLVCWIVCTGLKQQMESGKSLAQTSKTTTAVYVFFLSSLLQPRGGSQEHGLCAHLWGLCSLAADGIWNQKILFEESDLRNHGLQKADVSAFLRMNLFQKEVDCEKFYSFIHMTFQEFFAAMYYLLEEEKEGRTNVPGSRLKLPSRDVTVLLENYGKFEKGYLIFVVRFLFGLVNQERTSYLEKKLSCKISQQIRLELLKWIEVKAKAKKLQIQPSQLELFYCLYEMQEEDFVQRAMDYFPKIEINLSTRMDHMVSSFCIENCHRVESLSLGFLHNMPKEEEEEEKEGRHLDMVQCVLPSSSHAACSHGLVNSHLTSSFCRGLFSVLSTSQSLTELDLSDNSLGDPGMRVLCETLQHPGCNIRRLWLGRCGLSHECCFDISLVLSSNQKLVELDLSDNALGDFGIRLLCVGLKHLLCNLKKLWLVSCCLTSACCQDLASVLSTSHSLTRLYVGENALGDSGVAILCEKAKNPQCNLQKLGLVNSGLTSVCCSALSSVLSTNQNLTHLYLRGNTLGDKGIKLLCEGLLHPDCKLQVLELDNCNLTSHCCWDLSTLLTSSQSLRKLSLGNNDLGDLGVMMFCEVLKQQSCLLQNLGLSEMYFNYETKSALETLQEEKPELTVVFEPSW
Sequence of DNA (cytosine-5)-methyltransferase 1 (P26358 whole entry): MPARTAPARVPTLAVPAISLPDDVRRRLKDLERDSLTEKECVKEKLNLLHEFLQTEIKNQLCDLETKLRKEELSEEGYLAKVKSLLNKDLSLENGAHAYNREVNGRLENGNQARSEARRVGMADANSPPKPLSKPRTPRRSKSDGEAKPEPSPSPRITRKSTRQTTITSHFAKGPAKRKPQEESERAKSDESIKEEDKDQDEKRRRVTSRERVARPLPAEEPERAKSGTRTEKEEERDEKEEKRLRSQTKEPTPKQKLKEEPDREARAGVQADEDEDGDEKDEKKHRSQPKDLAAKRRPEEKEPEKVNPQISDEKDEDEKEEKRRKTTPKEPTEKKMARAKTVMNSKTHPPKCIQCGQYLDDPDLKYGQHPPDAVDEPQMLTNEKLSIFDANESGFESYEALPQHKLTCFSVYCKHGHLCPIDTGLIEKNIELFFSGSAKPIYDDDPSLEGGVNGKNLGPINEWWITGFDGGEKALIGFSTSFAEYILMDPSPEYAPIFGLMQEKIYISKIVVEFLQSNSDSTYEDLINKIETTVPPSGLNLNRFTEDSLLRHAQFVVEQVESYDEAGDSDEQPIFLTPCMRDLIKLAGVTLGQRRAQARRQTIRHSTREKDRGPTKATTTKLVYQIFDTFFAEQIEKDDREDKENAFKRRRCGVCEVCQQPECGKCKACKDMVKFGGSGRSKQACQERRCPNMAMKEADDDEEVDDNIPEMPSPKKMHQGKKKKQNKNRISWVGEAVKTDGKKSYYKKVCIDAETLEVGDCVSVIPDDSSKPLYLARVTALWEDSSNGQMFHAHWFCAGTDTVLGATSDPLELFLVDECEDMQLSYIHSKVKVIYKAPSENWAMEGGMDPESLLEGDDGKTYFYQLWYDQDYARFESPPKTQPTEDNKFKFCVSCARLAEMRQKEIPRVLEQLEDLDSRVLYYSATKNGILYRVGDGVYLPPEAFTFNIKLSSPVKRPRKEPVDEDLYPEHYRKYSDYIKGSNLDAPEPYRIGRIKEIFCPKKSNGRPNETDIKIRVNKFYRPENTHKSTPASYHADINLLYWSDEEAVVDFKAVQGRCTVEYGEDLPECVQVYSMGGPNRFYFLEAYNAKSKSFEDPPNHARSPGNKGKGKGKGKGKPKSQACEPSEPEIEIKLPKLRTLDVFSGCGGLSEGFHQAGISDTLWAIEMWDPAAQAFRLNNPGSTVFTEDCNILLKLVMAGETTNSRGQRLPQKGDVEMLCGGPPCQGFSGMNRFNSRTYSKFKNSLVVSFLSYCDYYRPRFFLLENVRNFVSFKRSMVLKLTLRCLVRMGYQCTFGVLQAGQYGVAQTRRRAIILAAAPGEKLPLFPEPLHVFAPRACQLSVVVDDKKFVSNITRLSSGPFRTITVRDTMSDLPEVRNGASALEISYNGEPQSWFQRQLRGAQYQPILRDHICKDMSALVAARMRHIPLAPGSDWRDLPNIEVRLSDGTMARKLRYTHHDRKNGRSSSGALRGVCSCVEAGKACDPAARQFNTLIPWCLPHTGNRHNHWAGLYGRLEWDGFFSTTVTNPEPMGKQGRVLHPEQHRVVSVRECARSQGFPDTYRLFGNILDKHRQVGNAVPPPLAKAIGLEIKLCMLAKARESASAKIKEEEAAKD
Sequence of Dual specificity protein phosphatase 3 (P51452 whole entry): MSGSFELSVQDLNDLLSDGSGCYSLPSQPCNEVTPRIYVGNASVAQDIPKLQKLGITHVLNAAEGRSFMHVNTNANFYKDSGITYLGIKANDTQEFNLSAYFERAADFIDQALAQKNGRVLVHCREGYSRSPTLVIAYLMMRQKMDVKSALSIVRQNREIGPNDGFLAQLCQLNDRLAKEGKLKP
Sequence of Cytochrome P450 2C9 (P11712 whole entry): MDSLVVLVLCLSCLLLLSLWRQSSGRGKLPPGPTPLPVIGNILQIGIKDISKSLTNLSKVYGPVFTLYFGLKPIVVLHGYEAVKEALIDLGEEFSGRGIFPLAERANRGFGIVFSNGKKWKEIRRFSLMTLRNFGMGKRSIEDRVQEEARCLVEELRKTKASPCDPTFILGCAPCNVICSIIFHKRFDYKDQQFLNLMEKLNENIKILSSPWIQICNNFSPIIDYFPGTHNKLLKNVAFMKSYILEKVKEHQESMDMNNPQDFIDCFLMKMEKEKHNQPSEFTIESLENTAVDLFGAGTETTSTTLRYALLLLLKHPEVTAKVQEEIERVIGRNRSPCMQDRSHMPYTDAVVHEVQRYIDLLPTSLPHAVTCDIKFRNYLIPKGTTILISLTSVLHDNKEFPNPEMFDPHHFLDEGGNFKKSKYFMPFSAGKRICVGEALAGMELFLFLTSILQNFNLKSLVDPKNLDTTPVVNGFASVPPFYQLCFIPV

Question: With CN(CC(=O)N1CCc2ccccc2C1)c1ccccc1 as the compound, how does the IC50 [1] read?
Answer: The IC50 was > 100 µM (inactive).

Question: Which results are given for COC(=O)\C(C(C)=O)=C(/C=C/C=C/C=C/N(C)C)N(C)C?
Answer: IC50 [2]: 8.38 µM (active); AC50 (Cytochrome P450 2C19): 14.1 µM (inconclusive); AC50 (Cytochrome P450 2C9): 15.8 µM (inconclusive); AC50 (HeLa): 274 µM (active); CC50 [3]: > 40 µM (active)

Question: Which Ki [4] does the source give for COc1ccc(-c2csc(Nc3ccc(N)cc3)n2)cc1OC here?
Answer: The Ki was 71.1 µM (inactive).

Question: Which EC50 [5] does the source give for COc1cc(NC(=O)c2cc(C3CC3)on2)cc(OC)c1 here?
Answer: The EC50 was > 5.57 µM (inactive).

Question: For Cc1ccc(NC(=O)CCCOc2cc(=O)n(C)c3ccccc23)c(Cl)c1, which EC50 (Wee1-like protein kinase) is on record?
Answer: Its EC50 is > 49.7 µM (inactive).

Question: And the EC50 [6]?
Answer: The EC50 was > 49.7 µM (inactive).

Question: What does the source list for CC[C@H](CO)Nc1nc(Nc2cccc(Cl)c2)c2ncn(C(C)C)c2n1?
Answer: AC50 [7]: 0.275 µM (active); AC50 [8]: 6.4 µM (active); IC50 [9]: > 20 µM (inactive)

Question: For N#Cc1ccc(NC(=O)c2ccccn2)cc1C(F)(F)F, which EC50 [10] is on record?
Answer: Its EC50 is 1.77 µM (active).
